# Measurements published in ChEMBL document CHEMBL3045445, “Structural features of GABAA receptor antagonists: pharmacophore modeling and 3D-QSAR studies” (Med Chem Res, 2013).
# Assay: Displacement of [3H]muscimol from GABAA receptor in Sprague-Dawley rat brain membrane`after 60 mins by TopCount microplate scintillation counting analysis
Structure (SMILES),Ki,pKi
Oc1noc(C2CCNCC2)c1Cc1ccc2c(Br)cccc2c1,80 nM,7.1
Oc1noc(C2CCNCC2)c1Cc1ccc2cccc(Br)c2c1,45 nM,7.35
On1nc(Cc2cccc3ccccc23)c(C2CCNCC2)c1-c1ccccc1,22 nM,7.66
On1nc(-c2ccccc2)c(C2CCNCC2)c1Cc1cccc2ccccc12,1500 nM,5.82
Oc1noc(C2CCNCC2)c1Cc1ccc2ccccc2c1-c1ccccc1,21 nM,7.68
Oc1noc(C2CCNCC2)c1Cc1ccc2ccccc2c1F,19 nM,7.72
Oc1noc(C2CCNCC2)c1Cc1ccc2ccc(Br)cc2c1,109 nM,6.96
CC1(c2cc(O)no2)CCNCC1,37000 nM,4.43
Oc1noc(C2CCNCC2)c1-c1ccc2ccccc2c1,36 nM,7.44
Oc1noc(C2CCNCC2)c1C(c1ccccc1)c1ccccc1,960 nM,6.02
Oc1noc(C2CCNCC2)c1-c1cccc2ccccc12,820 nM,6.09
Oc1noc(C2CCNCC2)c1Cc1cccc2ccccc12,100 nM,7
N#Cc1c(Cc2c(O)noc2C2CCNCC2)ccc2ccccc12,28 nM,7.55
Oc1noc(C2CCNCC2)c1CCc1ccc2ccccc2c1,490 nM,6.31
Oc1noc(C2CCNCC2)c1CCCC(c1ccccc1)c1ccccc1,700 nM,6.16
Oc1noc(C2CCNCC2)c1Cc1ccc2ccccc2c1Cl,16 nM,7.8
CSc1c(Cc2c(O)noc2C2CCNCC2)ccc2ccccc12,28 nM,7.55
